Tests used:
[1] = target: CDK2/cyclin A (Homo sapiens, UniProt P24941); experiment: Recombinant protein kinase assay, CDK2/cyclin A; assay type: biochemical; settings: 15 µM ATP
[2] = target: T1, CDK9/cyclin T (Homo sapiens, UniProt P50750); experiment: Recombinant protein kinase assay, CDK9/cyclin T; assay type: biochemical; settings: 15 µM ATP
T1 construct: made in house; host or cells: insect cells

[3] = target: CLK1 (Mus musculus, UniProt P22518); experiment: Recombinant protein kinase assay, CLK1; assay type: biochemical
CLK1, sequence (P22518 whole entry): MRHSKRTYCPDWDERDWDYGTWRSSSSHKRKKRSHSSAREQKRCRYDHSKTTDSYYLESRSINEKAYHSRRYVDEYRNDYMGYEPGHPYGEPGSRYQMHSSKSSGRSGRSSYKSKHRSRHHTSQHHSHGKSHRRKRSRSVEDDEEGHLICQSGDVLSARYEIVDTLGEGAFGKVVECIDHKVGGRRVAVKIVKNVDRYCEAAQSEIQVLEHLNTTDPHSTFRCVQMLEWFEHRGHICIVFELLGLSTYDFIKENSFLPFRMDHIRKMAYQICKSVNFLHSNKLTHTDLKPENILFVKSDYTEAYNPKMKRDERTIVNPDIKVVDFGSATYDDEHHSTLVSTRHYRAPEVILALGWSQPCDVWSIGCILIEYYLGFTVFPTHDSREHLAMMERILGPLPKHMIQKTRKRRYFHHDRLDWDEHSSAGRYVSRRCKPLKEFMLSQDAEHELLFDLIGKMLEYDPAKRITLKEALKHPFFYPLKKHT

[4] = target: T2, CK2 (Homo sapiens, UniProt P68400); experiment: Recombinant protein kinase assay, CK2; assay type: biochemical; settings: 15 µM ATP
T2 construct: Cochet
T2 sequence (P68400 whole entry): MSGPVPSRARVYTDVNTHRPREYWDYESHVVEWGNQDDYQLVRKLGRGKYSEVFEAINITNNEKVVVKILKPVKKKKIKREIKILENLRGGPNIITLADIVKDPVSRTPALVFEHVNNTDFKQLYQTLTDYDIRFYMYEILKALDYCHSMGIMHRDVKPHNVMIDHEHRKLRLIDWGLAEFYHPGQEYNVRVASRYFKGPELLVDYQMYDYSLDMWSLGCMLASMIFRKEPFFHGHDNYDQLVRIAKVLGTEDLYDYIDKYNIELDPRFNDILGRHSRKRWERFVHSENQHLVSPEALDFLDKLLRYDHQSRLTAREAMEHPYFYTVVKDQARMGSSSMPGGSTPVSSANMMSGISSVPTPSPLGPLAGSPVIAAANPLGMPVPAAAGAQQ

[5] = Pharmacokinetics and brain biodistribution of L41 after acute i.p. injection; assay type: in vivo; settings: mouse, ip
Experimental: To investigate the importance of DYRK1A in cognitive deficits shown by transgenic mouse models of DS, we used a series of low molecular weight pharmacological inhibitors, collectively known as leucettines ([Debdab et al., 2011]; [Tahtouh et al., 2012]; T. Tahtouh, unpublished).
re S1. Pharmacokinetics and brain biodistribution of L41 following acute intra-
zoom on the first 8 hours.
Disease Models & Mechanisms • Supplementary information

[6] = system: Tg(Dyrk1a) mice; experiment: Novel object recognition (NOR) test in Tg(Dyrk1a) mice; assay type: in vivo, mouse; settings: for Recovery in NOR test: 20 mg/kg daily i.p., 24 h retention delay
[7] = system: wt mice; experiment: Novel object recognition (NOR) test in wt mice; assay type: in vivo, mouse; settings: 20 mg/kg daily i.p., 5, 12 or 19 days
Experimental: (§1) Behavioural studies were conducted in 12- to 20-week-old male animals. All assessments were scored blind to genotype and treatment, as recommended by the ARRIVE guidelines ([Karp et al., 2015]; [Kilkenny et al., 2010]). […] The final formulation was prepared just prior to use as a 2 mg/ml solution diluted in PEG300/water (50/45), to reach a final DMSO/PEG300/water 5/50/45 (v/v/v) mix. Treated animals received a daily dose (5, 12 or 19 days) of this formulation by i.p. injection of 20 mg/kg/day. Nontreated animals received the same formulation without L41.
(§2) The NOR task is based on the innate tendency of rodents to differentially explore a novel object over a familiar one ([Ennaceur and Delacour, 1988]). Day 1 was a habituation session. Mice freely explored the apparatus, a white circular arena (53 cm diameter) placed in a dimly lit testing room (40 lux). On day 2, the acquisition phase, mice were free to explore two identical objects for 10 min. Mice were then returned to their home cage for a 24 h retention interval. […] Object exploration was manually scored and defined as the orientation of the nose to the object at a distance <1 cm. For the retention phase, the percent of time spent exploring familiar versus novel objects was calculated to assess memory performance.

[8] = system: Ts65Dn mice; experiment: Novel object recognition (NOR) test in Ts65Dn mice; assay type: in vivo, mouse; settings: daily i.p. treatment for 19 days
Experimental: as §1, §2

[9] = system: Tg(Dyrk1a) mice; experiment: Y-maze working memory in Tg(Dyrk1a) mice; assay type: in vivo, mouse; settings: L41-treated Tg(Dyrk1a) mice
[10] = system: Tg(Dyrk1a) mice; experiment: Place object location (POR) spatial memory in Tg(Dyrk1a) mice; assay type: in vivo, mouse; settings: L41-treated Tg(Dyrk1a) mice
[11] = target: T3, DYRK1A (Mus musculus, UniProt Q61214); experiment: Brain DYRK1A catalytic activity after treatment, Ts65Dn mice; assay type: in vivo; settings: 19 days daily i.p., normalized to GSK-3α/β activity
T3 construct: DYRK1A was purified from brain extracts by immunoprecipitation; from tissue; host or cells: mouse brain (wt, Tg(Dyrk1a), Ts65Dn)
Experimental: (§3) Protein kinase assays to measure the catalytic activity of DYRK1A in the brains of the animals treated with or without drugs were performed as follows: frozen half brains were homogenized in lysis buffer (1.2 ml/half brain) using Precellys® homogenizer tubes. After centrifugation at 2800 g for 2×15 s, 1 mg brain extract was incubated with 2 µg DYRK1A (H00001859 M01, Interchim) or GSK3-β (MBS8508391, Emelca Bioscience, France) antibodies at 4°C for 1 h under gentle rotation. Then, 20 µl protein G agarose beads (Thermo Fisher Scientific, France), previously washed three times with bead buffer (50 mM Tris pH 7.4, 5 mM NaF, 250 mM NaCl, 5 mM EDTA, 5 mM EGTA, 0.1% Nonidet P-40 and protease inhibitor cocktail from Roche, France), were added to the mix and gently rotated at 4°C for 30 min. After a 1 min spin at 10,000 g and removal of the supernatant, the pelleted immune complexes were washed three times with bead buffer, and a last time with Buffer C (60 mM β-glycerophosphate, 30 mM p-nitrophenolphosphate, 25 mM Mops pH 7.2, 5 mM EGTA, 15 mM MgCl2, 2 mM dithiothreitol, 0.1 mM sodium orthovanadate, 1 mM phenylphosphate, protease inhibitor cocktail). DYRK1A or GSK-3 immobilized on beads were assayed in buffer C as described in the Supplementary Materials and Methods with Woodtide ([…]) (1.5 µg/assay) or GSK3-tide ([…]pSED-EEE, where pS stands for phosphorylated serine) as substrates.

[12] = target: T3, DYRK1A; experiment: Brain DYRK1A catalytic activity after treatment, wt mice; assay type: in vivo; settings: 19 days daily i.p.
Experimental: as §3

[13] = target: T3, DYRK1A; experiment: In vitro kinase activity of DYRK1A immunopurified from mouse brains; assay type: biochemical; settings: DYRK1A from untreated wt, Tg(Dyrk1a) and Ts65Dn brains, increasing concentrations
[14] = L41 levels in brain nuclear and cytoplasmic fractions; settings: mouse, in vivo
Experimental: Thus, DYRK1A overexpression in the transgenic animals' brains appears to be limited to the cytoplasmic fraction, corresponding to the subcellular distribution of overexpressed DYRK1A (Fig. 7A,B). Accordingly, more L41 is detected in the cytoplasmic fraction from transgenic animals compared with their control littermates.
Nuclear, cytosolic and synaptosomal subcellular fractionation of brain tissue was performed with the Syn-PER™ and ProteoExtract® Tissue Dissociation Buffer Kit and Subcellular Proteome Extraction Kit following the instructions of the manufacturer. Fractions were analysed by SDS-PAGE and WB with specific antibodies.

T1 sequence (P50750 whole entry): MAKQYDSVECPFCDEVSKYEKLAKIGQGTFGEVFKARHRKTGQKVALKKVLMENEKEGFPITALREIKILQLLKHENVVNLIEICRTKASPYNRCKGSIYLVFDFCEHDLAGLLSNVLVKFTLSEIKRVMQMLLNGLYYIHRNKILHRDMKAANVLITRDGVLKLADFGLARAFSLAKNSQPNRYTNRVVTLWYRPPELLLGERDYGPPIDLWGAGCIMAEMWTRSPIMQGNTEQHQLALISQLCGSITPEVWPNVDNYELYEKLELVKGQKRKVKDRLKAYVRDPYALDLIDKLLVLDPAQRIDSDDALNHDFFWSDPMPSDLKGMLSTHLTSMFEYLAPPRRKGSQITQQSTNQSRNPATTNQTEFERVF
T1 sequence (O60563 whole entry partner): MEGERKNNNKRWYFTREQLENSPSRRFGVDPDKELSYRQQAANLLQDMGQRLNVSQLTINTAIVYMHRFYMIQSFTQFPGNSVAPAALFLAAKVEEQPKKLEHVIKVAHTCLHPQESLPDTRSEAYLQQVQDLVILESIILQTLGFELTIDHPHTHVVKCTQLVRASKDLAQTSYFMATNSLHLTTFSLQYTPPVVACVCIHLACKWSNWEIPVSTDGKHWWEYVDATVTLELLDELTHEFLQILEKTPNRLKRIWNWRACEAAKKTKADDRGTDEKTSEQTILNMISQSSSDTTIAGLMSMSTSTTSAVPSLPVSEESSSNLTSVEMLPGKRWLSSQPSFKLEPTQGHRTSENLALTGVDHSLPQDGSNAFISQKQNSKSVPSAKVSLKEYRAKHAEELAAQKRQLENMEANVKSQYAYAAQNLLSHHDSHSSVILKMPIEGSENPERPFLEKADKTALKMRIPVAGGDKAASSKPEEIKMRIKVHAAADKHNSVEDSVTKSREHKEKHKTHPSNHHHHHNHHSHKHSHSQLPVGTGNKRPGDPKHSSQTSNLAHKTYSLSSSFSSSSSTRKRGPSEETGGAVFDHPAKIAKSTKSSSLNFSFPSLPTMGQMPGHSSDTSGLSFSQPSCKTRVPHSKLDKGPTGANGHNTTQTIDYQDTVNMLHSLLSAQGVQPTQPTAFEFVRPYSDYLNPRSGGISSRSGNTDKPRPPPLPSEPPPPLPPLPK

O=C1NC(Nc2ccccc2)=N/C1=C\c1ccc2c(c1)OCO2 [L41]
IC50 [1]: > 10000 nM | IC50 [2]: > 10000 nM | IC50 [3]: 23 nM | IC50 [4]: 510 nM | half-life ([5]; Tg(Dyrk1a) transgenic and wild-type (wt) mice, plasma): ~45 min | Blood brain barrier crossing ([5]; in vivo): able to cross the blood brain barrier | Differences in pharmacokinetics or biodistribution between transgenic and wt mice ([5]; in vivo): No differences | L41 in brain extracts ([5]; in vivo): essentially undetectable | Time of maximum brain concentration ([5]; in vivo): 20 min | Time to elimination from brain after the maximum brain concentration ([5]; in vivo): 2 h | Recovery in NOR test ([6]; 5 days): only marginally | Recovery in NOR test ([6]; 12 days): consistently | Recovery in NOR test ([6]; 19 days): fully observed | Persistence of NOR rescue ([6]; 24 h after the last day of the 19 day treatment): rescuing effect was detectable | Persistence of NOR rescue ([6]; 48 h after the last day of the 19 day treatment): no rescue | Effect on NOR performance of wt animals [7]: no effect | NOR test outcome [8]: rescue | Effect on working memory (Y-maze) [9]: no restoring effect | Effect on place memory (place object location) [10]: no restoring effect | Reduction of brain DYRK1A activity [11]: ~30% | Effect on brain DYRK1A activity [12]: did not reduce | In vitro inhibition of brain DYRK1A [13]: almost fully inhibited | L41 level in brain cytoplasmic fraction, Tg(Dyrk1a) vs wt [14]: significantly increased | L41 levels in brain nuclear fractions, Tg(Dyrk1a) vs wt [14]: identical L41 levels
